Measurements: BigSolDB 2.1

Brc1cc(Br)cc(Br)c1
solubility (mole fraction)
Conditions | 288.15 K | 293.15 K | 298.15 K | 303.15 K | 308.15 K | 313.15 K | 318.15 K | 323.15 K | 328.15 K
in 1,4-dioxane | 0.0656 | 0.0742 | 0.0851 | 0.0972 | 0.111 | 0.123 | 0.141 | 0.157 | 0.178
in DMAc | 0.0159 | 0.0195 | 0.024 | 0.0292 | 0.0346 | 0.041 | 0.0491 | 0.0582 | 0.0683
in DMF | 0.00998 | 0.0127 | 0.0161 | 0.0202 | 0.0244 | 0.0295 | 0.0355 | 0.044 | 0.0521
